Where two headings read alike, the source gives them in different places.
How the values were obtained:
[1] = biological target: AURKA (Homo sapiens (Human), UniProt O14965); assay: Radioisotope filter binding assay (HotSpotSM; ReactionBiology) for AURKA kinase inhibition; assay type: biochemical
From the text: Table 2 summarizes the EC values of different compounds of this invention determined by colony formation assays on NMP53^−/− and NMCdkn2a^ARF−/− cells, as well as the corresponding IC50 values for the kinase inhibition of AURKA, determined by radioisotope filter binding assay (HotSpotSM; ReactionBiology). Most compounds further show a strong selectivity for NMP53^−/− cells, which is indicated by a lower EC concentration of a particular compound required for inhibiting cell growth of NMP53^−/− cells compared to NMCdkn2a^ARF−/− cells.

[2] = tested on: MYC; assay: Western blot analysis of cellular MYC levels in NMP53^−/− cells; assay type: cell-based, murine; conditions: 8 h after treatment with increasing concentrations
Description: A. Western blot analysis of MYC and AURKA in tumor cells (NMP53/cells) 8 h after treatment with increasing concentrations of compound 2c [N-(5-((4-(1H-pyrazole-4-yl)benzyl)amino)-2-fluorophenyl)-3-(furan-2-yl)propanamide]. Vinculin served as loading control (n=2) B. Western blot analysis of MYC and AURKA in tumor cells (NMP53^−/− cells) 8 h after treatment with increasing concentrations of compound 3a [N-(2-fluoro-5-((4-(1-methyl-1H-pyrazole-4-yl)benzyl)amino)phenyl)-3-(furan-2-yl)propanamide]. Vinculin served as loading control (n=2). […]
For western blot analysis, 2×10^6 cells were seeded per 10 cm dish and next day treated with the indicated compound concentrations. […] After addition of 4× Laemmli buffer (200 mM Tris-HCl pH 6.8, 8% SDS, 4% (3-mercaptoethanol, 40% glycerol, 0.33% bromophenol blue) the lysates were boiled for 5 min at 95° C. For western blot analysis, proteins were separated by SDS-polyacrylamide electrophoresis (using 25 μg of each sample) and transferred onto PVDF Immobilon-P membranes (Millipore). The blots were incubated with antibodies specific to MYC (Abeam ab32072, 1:1 000), AURKA (Abeam ab13824, 1:1 000) and Vinculin (Sigma Aldrich V9131-2 mL 1:10 000), followed by peroxidase-conjugated secondary antibodies. Proteins were detected by ChemiDoc MP Imaging System (Bio-Rad) using Clarity Western ECL Substrate (Bio-Rad).

[3] = biological target: Aurora A (Homo sapiens (Human), UniProt O14965); assay: ADP-Glo Kinase Assay with Aurora A Kinase Enzyme System; assay type: biochemical; conditions: compounds tested from 1 μM
Description: To measure the effect of the compounds on the activity of AURKA, the IC50 of the compounds was determined with the ADP-Glo™ Kinase Assay (Promega, V9101) and the Aurora A Kinase Enzyme System (Promega, V1931). The assay was performed according to the manufacturer's instructions in a white 384-well plate format (Corning Assay Plate, LOT 32216024) by using 1.4 ng/μl Aurora A, […] and 0.1 μg/μl myelin basic protein (MBP) substrate in a total volume of 6 μl (transferred with Integra viaflo 96/384 handheld channel pipette). To generate a dose-response curve, a 3-fold serial dilution of the compounds was tested starting from 1 μM. The kinase was pre-incubated for 10 min at RT with the respective compound, before the substrate mix containing MBP and ATP was added. After 60 min at RT, 6 μl of the ADP-Glo reagent were added and incubated for another 60 min at RT. Afterwards 12 μl of the detection reagent were added and incubated for 30 min at RT before the luminescence was measured with an integration time of 500 ms by using a Filter Max F5 multi-mode microplate reader from Molecular Devices. As a negative control, the reaction was performed with MBP, ATP and Aurora A only. […]

[4] = tested on: NMP53^−/− cells; assay: Cell viability assay (XTT-Assay); assay type: cell-based, murine; conditions: 3 days treatment, read-out: cellular IC50
Description: (A) Colony formation assay of a tumor cell line (NMP53^−/− cells), incubated for 5 days with compound 3a [N-(2-fluoro-5-((4-(1-methyl-1H-pyrazole-4-yl)benzyl)amino)phenyl)-3-(furan-2-yl)-propanamide] as indicated, fixed and stained with crystal violet. (B) Viability measurement (XTT assay) of a tumor cell line (NMP53^−/− cells) treated for 3 days with a series of concentrations of compound 3a according to this invention. […] (C) Determination of the percentage of cell death (by means of propidium iodide staining) of a tumor cell line (NMP53^−/− cells) treated with compound 3a for 5 days.
The cell viability assay (XTT-Assay) was used to determine cellular IC50 values. 1 000 cells were seeded per 96 well and treated with a 2-fold dilution series of the compounds on the next day. As a control, the cells were treated with DMSO according to the highest compound concentration (negative control) or 1.5 mM chloroquine (positive control). 3 days after treatment with the respective compound, or DMSO/chloroquine as a control, the XTT Assay was conducted according to the manufacturer's instructions (Invitrogen, X6493). The absorbance was measured with the Infinite M Plex plate reader (Tecan) at 450 nm. The IC50 was calculated by variable slope nonlinear regression utilizing GraphPad Prism 8.4.0 software (GraphPad Software, La Jolla, CA), with the DMSO treated cells resembling 100% cell viability and the chloroquine treated cells resembling o % cell viability.

Chain of AURKA (O14965 whole entry): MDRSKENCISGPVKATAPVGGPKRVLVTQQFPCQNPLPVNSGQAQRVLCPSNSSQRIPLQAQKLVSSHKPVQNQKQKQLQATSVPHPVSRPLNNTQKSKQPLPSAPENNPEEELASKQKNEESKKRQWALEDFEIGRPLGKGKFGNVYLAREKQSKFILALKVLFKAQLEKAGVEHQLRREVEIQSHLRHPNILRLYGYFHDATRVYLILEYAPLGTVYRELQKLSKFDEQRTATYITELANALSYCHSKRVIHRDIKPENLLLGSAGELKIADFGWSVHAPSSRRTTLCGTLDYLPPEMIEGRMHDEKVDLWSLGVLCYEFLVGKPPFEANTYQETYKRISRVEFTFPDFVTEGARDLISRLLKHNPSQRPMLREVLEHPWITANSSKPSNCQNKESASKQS
Chain of Aurora A (O14965 whole entry): as above

| IC50 [1] [nM] | IC50 ([3]; read-out: IC50 (AURKA)) [nM] | IC50 (AURKA) [3] | SMILES | MYC levels [2] | IC50 ([4]; Mus musculus, 72 h) [nM] | IC50 [4] [nM] |
| --- | --- | --- | --- | --- | --- | --- |
| 27.6 | 259 |  | O=C(CCc1ccco1)Nc1cc(NCc2ccc(-c3cn[nH]c3)cc2)ccc1F [Compound 2c, N-(5-((4-(1H-pyrazole-4-yl)benzyl)amino)-2-fluorophenyl)-3-(furan-2-yl)propanamide] | reduced in a concentration dependent manner | 60 |  |
| > 10000 |  | no kinase inhibition | Cn1cc(-c2ccc(CNc3ccc(F)c(NC(=O)CCc4ccco4)c3)cc2)cn1 [Compound 3a, N-(2-fluoro-5-((4-(1-methyl-1H-pyrazole-4-yl)benzyl)amino)phenyl)-3-(furan-2-yl)propanamide] | reduced in a concentration dependent manner | 14 | 13 |

From patent publication US20240101538A1, “PROTEIN-PROTEIN INTERACTION MODULATORS OF AURORA KINASE A AND THEIR USE IN THE PREVENTION AND/OR TREATMENT OF CANCER” (EBERHARD KARLS UNIVERSITÄT TÜBINGEN, priority 2020, published 2024)
